Laboratory results from patent US3948886A, “6-Substituted purine 3',5'-cyclic nucleotides” (ICN Pharmaceuticals, Inc., priority 1973, dated 1976).

Experiments:
[1] = tested on: cyclic AMP phosphodiesterase; assay: Resistance to phosphodiesterase (PDE) degradation; assay type: biochemical; settings: rabbit kidney PDE, pH 7.5, 37°C
[2] = tested on: cyclic AMP-dependent protein kinase; assay: Activation of bovine brain cyclic AMP-dependent protein kinase; assay type: biochemical; settings: pH 6, relative to cyclic AMP
Experimental: Cyclic AMP-dependent protein kinase was purified to the stage of DEAE cellulose chromatography from bovine brain using the procedure of Miyamoto et al., J. Biol. Chem. 244, 6395 (1969). Protein kinase activity was assayed by measuring the incorporation of ^32 P-phosphate into histone from γ-^32 P labeled ATP. The incubation mixture contained (amounts in μmoles): sodium glycerol phosphate buffer, pH 6, 10; γ-^32 P-ATP, ~2 × 10^6 cpm, 0.001; magnesium acetate, 2; sodium fluoride, 2; EDTA, 0.06; histone, 40 - 400 μg; cAMP, cGMP or analog as indicated; purified protein kinase, 5 - 25 μg in a final volume of 0.2 ml. Activation constants (Ka) were determined according to the procedure of Muneyama et al., supra. The Ka values relative to cyclic AMP (Ka') are reported in Table IV and compared to Ka' for compound 6.

L-929 cells = assay: Interferon potentiation in vitro with L-929 cells; assay type: cell-based
adenyl cyclase = assay: Adenyl cyclase inhibition (guinea pig lung particulate fraction); assay type: biochemical; settings: guinea pig lung particulate enzyme fraction, 1.2 mM ATP, pH 7.8, 15 min at 37°; read-out: I50 (concentration required for 50% enzyme inhibition)
Experimental: Lunt alveolar tissue was obtained from normal guinea pigs. The tissue was minced and a Duall tissue grinder was used to prepare a 20% homogenate in chilled buffer containing 1 mM MgCl 2 and 2 mM glycylglycine, pH 7.5 (F. Murad et al., J. Biol. Chem. 237: 1233, 1962). The homogenate was strained through four layers of gauze and centrifuged at 1000xg for 15 min at 4°. The pellet was resuspended in the original volume of buffer and recentrifuged. The pellet was again resuspended in buffer and 0.5 - 1.0 ml aliquots were sealed in ampoules and stored under liquid nitrogen for future assay of adenylate cyclase activity. […] Protein was determined by the method of Lowry et al., J. Biol. Chem. 193: 265, 1951, with crystalline bovine serum albumin as standard.
Adenylate cyclase activity was assayed in duplicate by a modification of previously published methods (G. Krishna et al., J. Pharmacol. Exp. Therap. 163: 379, 1968; G. S. Levey and S. E. Epstein, Circ. Res. 24: 151, 1969). The total assay volume was 0.59 ml and contained 1.8 mM MgCl2, 0.8 mM glycylglycine, 32 mM Tris (pH 7.8), 1.2 mM ATP, 3-5×10^6 cpm [α-^32 P] ATP, and particulate enzyme fraction (100-150 μg. lung protein). Concentrated solutions of compounds to be tested were prepared fresh daily by dissolution in water, ethanol, or dimethyl sulfoxide; 5-10 μl of the solution was added to the incubation mixture to give the desired final concentration. Control assays (without compound) contained solvent alone.
The incubation mixture was reacted for 15 min at 37° in a shaker, and then boiled for 3 min to inactivate the cyclase. One hundred μl of a solution containing 4 μmoles ATP, 1.25 μmoles cyclic AMP, and 0.15μCi [^3 H] cyclic AMP was added to the reaction mixture. […] After centrifugation, 1 ml of supernatant containing [^32 P] cyclic AMP and [^3 H] cyclic AMP was mixed with 15 ml of scintillator (100 g naphthalene, 14 g PPO, and 0.1 g dimethyl POPOP per 2 l dioxane) and counted. […]

Herpes virus Type 1 = assay: Antiviral activity, virus rating (VR) method, Herpes Type 1; assay type: cell-based; settings: virus rating (VR) method of Sidwell et al.
Text: (§1) Tested according to the virus rating (VR) method of Sidwell et al., Proc. Soc.

Herpes virus Type 2 = assay: Antiviral activity, virus rating (VR) method, Herpes Type 2; assay type: cell-based; settings: virus rating (VR) method of Sidwell et al.
Text: as §1

Rhino viruses = assay: Antiviral activity, virus rating (VR) method, Rhino viruses; assay type: cell-based; settings: virus rating (VR) method of Sidwell et al.
Text: as §1

[3] = tested on: 6-methylthio-purine riboside-resistant Ehrlich carcinomas; assay: Growth inhibition of surgically implanted Ehrlich carcinomas in mice; assay type: in vivo; settings: intraperitoneally, 83 μmoles/Kg

Row | Compound | rate of analog hydrolysis relative to cyclic AMP (α) [1] | Ka' (= Ka, cyclic AMP/Ka analog) [2] | interferon potentiation (L-929 cells) | IC50 (adenyl cyclase) [µM] | activity against Herpes virus Type 1 (Herpes virus Type 1) | activity against Herpes virus Type 2 (Herpes virus Type 2) | activity against Rhino viruses (Rhino viruses) | inhibition of growth of Ehrlich carcinomas [3]
1 | O=P1(O)OC[C@H]2O[C@@H](n3cnc4c(=S)[nH]cnc43)[C@H](O)[C@@H]2O1 [Compound 6, 9-β-D-Ribofuranosylpurin-6-thione 3', 5'-cyclic phosphate, reference compound] | 1.06 | 0.56 | did not |  |  |  |  | 
2 | CSc1ncnc2c1ncn2[C@@H]1O[C@@H]2COP(=O)(O)O[C@H]2[C@H]1O [Compound 7a, 6-Methylthio-9-β-D-ribofuranosylpurine 3', 5'-cyclic phosphate] | 0.41 | 1.45 | marked interferon potentiation | 340 | exhibited activity | exhibited activity |  | 
3 | CCSc1ncnc2c1ncn2[C@@H]1O[C@@H]2COP(=O)(O)O[C@H]2[C@H]1O [Compound 7b, 6-Ethylthio-9-β-D-ribofuranosylpurine 3', 5'-cyclic phosphate] | 0.57 | 2.0 | marked interferon potentiation | 1000 | exhibited activity |  | exhibited activity | 
4 | O=P1(O)OC[C@H]2O[C@@H](n3cnc4c(SCc5ccccc5)ncnc43)[C@H](O)[C@@H]2O1 [Compound 7c, 6-Benzylthio-9-β-D-ribofuranosylpurine 3', 5'-cyclic phosphate] | 0.54 | 1.25 |  | 7000 |  | exhibited activity |  | inhibited growth
